Assay results from patent publication US9694019B2, “Compositions and methods for treating bone diseases and broken bones” (BRIGHAM YOUNG UNIVERSITY, priority 2011, dated 2017).

Legend:
MC3T3-E1 cells = assay: Quantitative spectroscopic ALP (alkaline phosphatase) assay in MC3T3-E1 cells; type: cell-based; details: MC3T3-E1 day 4 of differentiation, with or without 200 ng/mL rhBMP-2 and 50 μM sodium alginate; compared with CSA-90 (FIG. 4)
Experimental: MC3T3-E1 cells at day 4 of differentiation were treated with or without 200 ng/mL rhBMP-2 (recombinant human BMP-2), 0-50 μM CSA-90, and with or without 50 μM sodium alginate. Quantitative spectroscopic ALP (alkaline phosphatase) assays were performed in on multiple wells and normalized to viable cell number. Experimental assays were carried out twice independently. Data for this analysis is provided in FIG. 4 (from left to right 0, 0.5, 1, 5, 10, 25, and 50 μM CSA-90 were tested with or without BMP-2 and Algin).

quadriceps of mice = assay: Ectopic bone formation in quadriceps of mice (muscle pouch model), XR and microCT; type: in vivo
Experimental: 10 μg rhBMP-2 was implanted into the quadriceps of mice with 0, 25 μg, or 250 μg CSA-90. A control group received 250 μg CSA-90 alone (without rhBMP-2). Bone was allowed to form ectopically over 3 weeks. Specimens were then harvested for XR (FIG. 5) and microCT (FIG. 7).
MicroCT scans were performed on all samples using a Skyscan 1174 microCT scanner. Scanning data confirmed increases in bone volume (BV) with the addition of CSA-90 (See FIG. 6).

primary human MSC cells = assay: BMP regulation: gene expression array (SABiosciences PAHS-026) in primary human MSC cells; type: cell-based; details: hMSC, 8 hours
Experimental: SABisosciences custom array plates (Cat#PAHS-026) were used to measure BMP expression. These array plates are validated for efficiency when used at recommended conditions and reagents. On day 1, primary human MSC cells were plated at 200,000 cell/well using 6-well plates with 10% FBS, Penicillin and Streptomycin 10 mL per Liter, in recommended media. Only early passages of cells were used.
On day 2, cells were treated with compounds dissolved in DMSO diluted 1:1000 or more to avoid solvent effects. A non-treated negative control group was evaluated (FIG. 1, “Control Group”) along with a positive control group containing PS1 at 0.1 μM (FIG. 1, “Group 1”). Final testing concentration for CSA-90 was 5.0 μM (FIG. 1, “Group 2”), 2.5 μM (FIG. 1, “Group 3”), and 1.2 μM (FIG. 1, “Group 4”). Treatment lasted 8 hours, followed by RNA isolation using a QIAGEN Miniprep Kit. RNA was measured at 260/280 nm using NanoDrop2000 and normalized to 250 ng. cDNA preparation was done using QIAGEN First Strand kit.

[1] = v. untreated control, concentration not given

CCCCCCCCNCCC[C@@H](C)[C@H]1CC[C@H]2[C@@H]3[C@H](OCCCN)C[C@@H]4C[C@H](OCCCN)CC[C@]4(C)[C@H]3C[C@H](OCCCN)[C@]12C [CSA-13] was tested, and the “ALP (alkaline phosphatase) activity normalized to viable cell number” value (MC3T3-E1 cells) was “Comparable results”.

CCCCCN(CCCCC)CCC[C@@H](C)[C@H]1CC[C@H]2[C@@H]3[C@H](OCCCN)C[C@@H]4C[C@H](OCCCN)CC[C@]4(C)[C@H]3C[C@H](OCCCN)[C@]12C [CSA-90] was tested, and the “increase in bone volume (BV) vs rhBMP-2 alone” value (quadriceps of mice; 25 μg with 10 μg rhBMP-2, mice quadriceps, 3 weeks, microCT, parametric P=0.02, nonparametric P<0.01) was “statistically significant”, the “bone formation, CSA alone” value (quadriceps of mice; 250 μg alone without rhBMP-2, muscle pouch model, mice, 3 weeks, microCT (FIG. 7)) was “appears to also result in bone formation” and the “increase in bone volume (BV) vs rhBMP-2 alone” value (quadriceps of mice; 250 μg with 10 μg rhBMP-2, mice quadriceps, 3 weeks, microCT, parametric P<0.01, nonparametric P<0.01) was “statistically significant”. For the same compound, the “increase of ectopic bone volume induced by rhBMP-2 treatment” value (quadriceps of mice; mice quadriceps, 10 μg rhBMP-2 plus CSA-90, 3 weeks, microCT, vs rhBMP-2 alone) was “about 3.2 fold”, the “up-regulation of BMP-2 mRNA expression” value (primary human MSC cells; 5 μM concentration) was about 6 fold and the “Fold Up-Regulation ACTB (Actin, beta)” value (primary human MSC cells; [1]) was −4.1173 fold. The “Fold Up-Regulation AHSG (Alpha-2-HS-glycoprotein)” value (primary human MSC cells; [1]) was 1.4077 fold, the “Fold Up-Regulation ALPL (Alkaline phosphatase, liver/bone/kidney)” value (primary human MSC cells; [1]) was −5.8397 fold and the “Fold Up-Regulation AMBN (Ameloblastin)” value (primary human MSC cells; [1]) was −1.0298 fold. For the same compound, the “Fold Up-Regulation AMELY (Amelogenin, Y-linked)” value (primary human MSC cells; [1]) was −1.008 fold, the “Fold Up-Regulation ANXA5 (Annexin A5)” value (primary human MSC cells; [1]) was −1.0287 fold and the “Fold Up-Regulation BGLAP (Bone gamma-carboxyglutamate (gla) protein)” value (primary human MSC cells; [1]) was −1.1336 fold. The “Fold Up-Regulation BGN (Biglycan)” value (primary human MSC cells; [1]) was −2.2679 fold, the “Fold Up-Regulation BMP-1 (Bone morphogenetic protein 1)” value (primary human MSC cells; [1]) was −1.4719 fold and the “Fold Up-Regulation BMP-2 (Bone morphogenetic protein 2)” value (primary human MSC cells; [1]) was 6.7295 fold. For the same compound, the “Fold Up-Regulation BMP-3 (Bone morphogenetic protein 3)” value (primary human MSC cells; [1]) was 1.3888 fold, the “Fold Up-Regulation BMP-4 (Bone morphogenetic protein 4)” value (primary human MSC cells; [1]) was −3.7558 fold and the “Fold Up-Regulation BMP-5 (Bone morphogenetic protein 5)” value (primary human MSC cells; [1]) was 2.1036 fold. The “Fold Up-Regulation BMP-6 (Bone morphogenetic protein 6)” value (primary human MSC cells; [1]) was 14.8826 fold, the “Fold Up-Regulation CALCR (CALCITONIN RECEPTOR)” value (primary human MSC cells; [1]) was 2.1036 fold and the “Fold Up-Regulation CD36 (CD36 molecule, thrombospondin receptor)” value (primary human MSC cells; [1]) was −2.3276 fold. For the same compound, the “Fold Up-Regulation CDH11 (Cadherin 11, type 2, OB-cadherin)” value (primary human MSC cells; [1]) was −2.6119 fold, the “Fold Up-Regulation COL1A1 (Collagen, type I, alpha 1)” value (primary human MSC cells; [1]) was −1.9589 fold and the “Fold Up-Regulation COL1A2 (Collagen, type I, alpha 2)” value (primary human MSC cells; [1]) was −1.525 fold. The “Fold Up-Regulation COL2A1 (Collagen, type II, alpha 1)” value (primary human MSC cells; [1]) was 1.0817 fold, the “Fold Up-Regulation COL3A1 (Collagen, type III, alpha 1)” value (primary human MSC cells; [1]) was 1.1521 fold and the “Fold Up-Regulation COL4A3 (Collagen, type IV, alpha 3)” value (primary human MSC cells; [1]) was −9.7105 fold. For the same compound, the “Fold Up-Regulation COL5A1 (Collagen, type V, alpha 1)” value (primary human MSC cells; [1]) was −1.603 fold, the “Fold Up-Regulation COL10A1 (Collagen, type X, alpha 1)” value (primary human MSC cells; [1]) was 1.0439 fold and the “Fold Up-Regulation COL11A1 (Collagen, type XI, alpha 1)” value (primary human MSC cells; [1]) was −2.8055 fold. For the same compound, the “Fold Up-Regulation COL12A1 (Collagen, type XII, alpha 1)” value (primary human MSC cells; [1]) was −1.366 fold, the “Fold Up-Regulation COL14A1 (Collagen, type XIV, alpha 1)” value (primary human MSC cells; [1]) was 1.0661 fold and the “Fold Up-Regulation COL15A1 (Collagen, type XV, alpha 1)” value (primary human MSC cells; [1]) was 1.1217 fold. The “Fold Up-Regulation COMP (Cartilage oligomeric matrix protein)” value (primary human MSC cells; [1]) was 1.5909 fold, the “Fold Up-Regulation CSF2 (Colony stimulating factor 2)” value (primary human MSC cells; [1]) was 3.2231 fold and the “Fold Up-Regulation CSF3 (Colony stimulating factor 3)” value (primary human MSC cells; [1]) was 1.3504 fold. The “Fold Up-Regulation CTSK (Cathepsin K)” value (primary human MSC cells; [1]) was 1.0843 fold, the “Fold Up-Regulation DMP1 (Dentin matrix acidic phosphoprotein 1)” value (primary human MSC cells; [1]) was 2.1036 fold and the “Fold Up-Regulation DSPP (Dentin sialophosphoprotein)” value (primary human MSC cells; [1]) was 2.1036 fold. For the same compound, the “Fold Up-Regulation EGF (Epidermal growth factor)” value (primary human MSC cells; [1]) was −1.3949 fold, the “Fold Up-Regulation EGFR (Epidermal growth factor receptor)” value (primary human MSC cells; [1]) was 1.0894 fold and the “Fold Up-Regulation ENAM (Enamelin)” value (primary human MSC cells; [1]) was 2.1036 fold. The “Fold Up-Regulation FGF1 (Fibroblast growth factor 1)” value (primary human MSC cells; [1]) was −1.7551 fold, the “Fold Up-Regulation FGF2 (Fibroblast growth factor 2)” value (primary human MSC cells; [1]) was −1.0498 fold and the “Fold Up-Regulation FGF3 (Fibroblast growth factor 3)” value (primary human MSC cells; [1]) was −1.5325 fold. For the same compound, the “Fold Up-Regulation FGFR1 (Fibroblast growth factor receptor 1)” value (primary human MSC cells; [1]) was −1.5568 fold, the “Fold Up-Regulation FGFR2 (Fibroblast growth factor receptor 2)” value (primary human MSC cells; [1]) was −3.1961 fold and the “Fold Up-Regulation FLT1 (Fms-related tyrosine kinase 1)” value (primary human MSC cells; [1]) was −2.1823 fold. For the same compound, the “Fold Up-Regulation FN1 (Fibronectin 1)” value (primary human MSC cells; [1]) was −1.4863 fold, the “Fold Up-Regulation GAPDH (Glyceraldehyde-3-phosphate dehydrogenase)” value (primary human MSC cells; [1]) was −1.0501 fold and the “Fold Up-Regulation GDF10 (Growth differentiation factor 10)” value (primary human MSC cells; [1]) was 2.1036 fold. The “Fold Up-Regulation ICAM1 (Intercellular adhesion molecule 1)” value (primary human MSC cells; [1]) was 1.3786 fold, the “Fold Up-Regulation IGF1 (Insulin-like growth factor 1)” value (primary human MSC cells; [1]) was 15.8816 fold and the “Fold Up-Regulation IGF1R (Insulin-like growth factor 1 receptor)” value (primary human MSC cells; [1]) was 1.6854 fold. For the same compound, the “Fold Up-Regulation IGF2 (Insulin-like growth factor 2)” value (primary human MSC cells; [1]) was −2.6412 fold, the “Fold Up-Regulation ITGA1 (Integrin, alpha 1)” value (primary human MSC cells; [1]) was 1.2807 fold and the “Fold Up-Regulation ITGA2 (Integrin, alpha 2)” value (primary human MSC cells; [1]) was 1.6174 fold. For the same compound, the “Fold Up-Regulation ITGA3 (Integrin, alpha 3)” value (primary human MSC cells; [1]) was −2.1172 fold, the “Fold Up-Regulation ITGAM (Integrin, alpha M)” value (primary human MSC cells; [1]) was 2.5974 fold and the “Fold Up-Regulation ITGB1 (Integrin, beta 1)” value (primary human MSC cells; [1]) was −1.3007 fold. For the same compound, the “Fold Up-Regulation MMP2 (Matrix metallopeptidase 2)” value (primary human MSC cells; [1]) was −1.6002 fold, the “Fold Up-Regulation MMP8 (Matrix metallopeptidase 8)” value (primary human MSC cells; [1]) was −1.0189 fold and the “Fold Up-Regulation MMP9 (Matrix metallopeptidase 9)” value (primary human MSC cells; [1]) was 2.0169 fold. For the same compound, the “Fold Up-Regulation MMP10 (Matrix metallopeptidase 10)” value (primary human MSC cells; [1]) was 2.1233 fold, the “Fold Up-Regulation MSX1 (Msh homeobox 1)” value (primary human MSC cells; [1]) was −1.1393 fold and the “Fold Up-Regulation NFKB1 (Nuclear factor of kappa light polypeptide gene enhancer in B-cells 1)” value (primary human MSC cells; [1]) was 1.0365 fold. The “Fold Up-Regulation PDGFA (Platelet-derived growth factor alpha polypeptide)” value (primary human MSC cells; [1]) was −1.1381 fold, the “Fold Up-Regulation PHEX (Phosphate regulating endopeptidase homolog, X-linked)” value (primary human MSC cells; [1]) was −2.0881 fold and the “Fold Up-Regulation RUNX2 (Runt-related transcription factor 2)” value (primary human MSC cells; [1]) was −1.1998 fold. The “Fold Up-Regulation SCARB1 (Scavenger receptor class B, member 1)” value (primary human MSC cells; [1]) was −2.7137 fold, the “Fold Up-Regulation SERPIN H1 (Serpin peptidase inhibitor, clade H, member 1)” value (primary human MSC cells; [1]) was −2.6434 fold and the “Fold Up-Regulation SMAD1 (SMAD family member 1)” value (primary human MSC cells; [1]) was −1.2436 fold. The “Fold Up-Regulation SMAD2 (SMAD family member 2)” value (primary human MSC cells; [1]) was −1.2016 fold, the “Fold Up-Regulation SMAD3 (SMAD family member 3)” value (primary human MSC cells; [1]) was −2.8152 fold and the “Fold Up-Regulation SMAD4 (SMAD family member 4)” value (primary human MSC cells; [1]) was −1.0529 fold. The “Fold Up-Regulation STATH (Statherin)” value (primary human MSC cells; [1]) was 2.5891 fold, the “Fold Up-Regulation TFIP11 (Tuftelin interacting protein 11)” value (primary human MSC cells; [1]) was −1.6592 fold and the “Fold Up-Regulation TGFB1 (Transforming growth factor, beta 1)” value (primary human MSC cells; [1]) was −1.3031 fold. The “Fold Up-Regulation TGFB2 (Transforming growth factor, beta 2)” value (primary human MSC cells; [1]) was 1.619 fold, the “Fold Up-Regulation TGFB3 (Transforming growth factor, beta 3)” value (primary human MSC cells; [1]) was 3.2853 fold and the “Fold Up-Regulation TGFBR1 (Transforming growth factor, beta receptor 1)” value (primary human MSC cells; [1]) was 1.5219 fold. For the same compound, the “Fold Up-Regulation TGFBR2 (Transforming growth factor, beta receptor II)” value (primary human MSC cells; [1]) was −1.7799 fold, the “Fold Up-Regulation TNF (Tumor necrosis factor)” value (primary human MSC cells; [1]) was 2.7072 fold and the “Fold Up-Regulation TUFT1 (Tuftelin 1)” value (primary human MSC cells; [1]) was −4.5431 fold. The “Fold Up-Regulation TWIST1 (Twist homolog 1)” value (primary human MSC cells; [1]) was −1.6813 fold, the “Fold Up-Regulation VCAM1 (Vascular cell adhesion molecule 1)” value (primary human MSC cells; [1]) was −1.1098 fold and the “Fold Up-Regulation VDR (Vitamin D (1,25-dihydroxyvitamin D3) receptor)” value (primary human MSC cells; [1]) was −6.6007 fold. For the same compound, the “Fold Up-Regulation VEGFA (Vascular endothelial growth factor A)” value (primary human MSC cells; [1]) was 1.3548 fold and the “Fold Up-Regulation VEGFB (Vascular endothelial growth factor B)” value (primary human MSC cells; [1]) was 1.2749 fold.
